Test results reported in paper PMC12222587, “A2B adenosine receptor-triggered intracellular calcium mobilization: Cell type-dependent involvement of Gi, Gq, Gs proteins and protein kinase C” (Purinergic Signalling, 2025).
Entries after “also recorded” stand apart in the source; their conditions may differ. *1 amine or outer side, *2 acyl side, *3 side chain or, on linkers, in order; H or OH if unused. Where a SMILES comes first, the peptide text is derived from it. Bridges are numbered along the chain shown (N, C = ends). [ ]: non-standard residue; d: D form. X2 = CC(=O)NC(C(=O)OC(C(C)C)C(N[*:1])C(=O)[*:2])C(O)C(C)C; PhLac = O=C(O)[CH](O)Cc1ccccc1; NMeT = CN[CH](C(=O)O)[CH](C)O; NMeA = CN[CH](C)C(=O)O; NMeDha = C=C(NC)C(=O)O

Columns and labels:
[1] = test system: endogenous adenosine receptors; experiment: cAMP accumulation, MDA-MB-231 cells expressing endogenous adenosine receptors; type: cell-based, human
Description: (§1) HEK293, T24 bladder cancer and MDA-MB-231 breast cell lines were cultured in DMEM medium containing 10% fetal bovine serum, 100 units/ml penicillin, 100 μg/ml streptomycin, and 2 μmol/ml glutamine. For the assay of 3′,5′-cyclic adenosine monophosphate (cAMP), cells were plated in 96-well (4 × 10^4 cells/well) clear plates in 100 μl of medium overnight. Cell culture medium was then replaced with 80 µl HBSS buffer containing 20 mM HEPES, phosphodiesterase inhibitor rolipram (10 μM), and 3 units/ml adenosine deaminase (Worthington Biochemical, Lakewood, NJ, USA) for 30 min followed by agonist addition to the mixture, which was then incubated for 20 min. The treatment of YM or FR was 20 min before agonist addition.

A2BAR = biological target: T1, A2BAR (Homo sapiens, UniProt P29275); experiment: Intracellular calcium mobilization, T24 bladder cancer cells, native A2BAR (NECA); type: cell-based; settings: T24 cells; for Effect on native A2BAR (NECA)-triggered calcium mobilization: YM 300 nM, FR 300 nM, PTX 200 ng/ml, CTX 500 ng/ml overnight, other inhibitors 20 min before NECA
T1 sequence (P29275 1-332): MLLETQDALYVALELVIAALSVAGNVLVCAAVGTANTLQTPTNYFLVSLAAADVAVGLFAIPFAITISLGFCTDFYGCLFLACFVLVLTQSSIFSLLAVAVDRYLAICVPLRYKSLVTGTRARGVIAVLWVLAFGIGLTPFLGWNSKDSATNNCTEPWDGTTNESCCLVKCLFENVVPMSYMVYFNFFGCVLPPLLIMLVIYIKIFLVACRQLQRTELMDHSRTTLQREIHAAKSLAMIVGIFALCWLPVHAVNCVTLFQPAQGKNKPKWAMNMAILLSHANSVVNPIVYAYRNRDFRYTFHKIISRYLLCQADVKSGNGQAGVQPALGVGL

P2Y1R [2] = biological target: T2, P2Y1R (Homo sapiens, UniProt P47900); experiment: Intracellular calcium mobilization, T24 bladder cancer cells, native P2Y1R (MRS2365); type: cell-based; settings: for Effect on native P2Y1R (MRS2365)-triggered calcium mobilization: YM 300 nM, FR 300 nM, PTX 200 ng/ml overnight
β2-adrenergic receptor = β2-adrenergic receptor (Homo sapiens, UniProt P07550); experiment: Intracellular calcium mobilization, T24 bladder cancer cells, endogenous β2-adrenergic receptor; type: cell-based; settings: T24 cells; for Effect on formoterol-induced calcium mobilization (β2-adrenergic receptor): PTX 200 ng/ml, CTX 500 ng/ml
P2Y1R [3] = biological target: T2, P2Y1R; experiment: Intracellular calcium mobilization, HEK293 cells, native P2Y1R (MRS2365); type: cell-based; settings: for Effect on P2Y1R (MRS2365)-mediated calcium mobilization: Gq/11 siRNA 250 nM, PTX 200 ng/ml overnight, FR, YM 20 min before agonist
A1AR [4] = biological target: T3, A1AR (Homo sapiens, UniProt P30542); experiment: Intracellular calcium mobilization, HEK293 cells expressing recombinant A1AR (CCPA); type: cell-based; settings: for Effect on A1AR (CCPA)-mediated calcium mobilization: HEK293 cells overexpressing A1AR, Gq/11 siRNA 250 nM, PTX 200 ng/ml overnight, FR, YM 20 min before agonist
T3 construct: expressed in transfected cells
T3 sequence (P30542 1-326): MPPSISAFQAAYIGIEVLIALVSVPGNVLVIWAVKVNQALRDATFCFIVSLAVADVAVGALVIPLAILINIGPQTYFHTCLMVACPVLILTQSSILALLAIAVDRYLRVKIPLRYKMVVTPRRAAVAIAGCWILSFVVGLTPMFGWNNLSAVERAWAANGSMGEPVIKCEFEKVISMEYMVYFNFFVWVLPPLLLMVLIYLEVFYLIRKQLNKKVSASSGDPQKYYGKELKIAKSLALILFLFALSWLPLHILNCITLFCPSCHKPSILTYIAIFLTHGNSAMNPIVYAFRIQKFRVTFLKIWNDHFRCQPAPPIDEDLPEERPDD

LPA receptor = experiment: Intracellular calcium mobilization, HEK293 cells, endogenous LPA receptor; type: cell-based, human
A1AR [5] = experiment: Calcium increase, CHO cells expressing recombinant A1AR (CCPA); type: cell-based; settings: recombinant A1 receptor, CCPA 1 µM, read-out: IC50 in inhibiting the effect of CCPA (Ca2+ increase)
M2 muscarinic receptor = experiment: Calcium increase, CHO cells expressing recombinant M2 muscarinic receptor (carbachol); type: cell-based; settings: carbachol 10 µM, read-out: IC50 in inhibiting the effect of carbachol (Ca2+ increase)
A1AR [6] = biological target: T3, A1AR; experiment: cAMP accumulation, HEK293 cells, A1AR-mediated inhibition of forskolin-stimulated cAMP (CCPA); type: cell-based
Description: as §1

A2AAR = biological target: T4, A2AAR (Homo sapiens, UniProt P29274); experiment: cAMP accumulation, HEK293 cells, A2AAR-mediated stimulation (CGS21680); type: cell-based
T4 construct: host or cells: HEK293
Description: as §1

P2Y1R [7] = settings: 1321N1 astrocytoma (P2Y1-overexpressing); ref Gao and Jacobson, 2017 [29]; cited from earlier work
A1AR [8] = settings: FR 100 nM; cited from earlier work
HMC-1 cells = settings: HMC-1 cells; ref Feoktistov et al., 1995 [30]; cited from earlier work
[9] = GO 20 min, then PMA 20 min before agonist

T2 sequence (P47900 whole entry): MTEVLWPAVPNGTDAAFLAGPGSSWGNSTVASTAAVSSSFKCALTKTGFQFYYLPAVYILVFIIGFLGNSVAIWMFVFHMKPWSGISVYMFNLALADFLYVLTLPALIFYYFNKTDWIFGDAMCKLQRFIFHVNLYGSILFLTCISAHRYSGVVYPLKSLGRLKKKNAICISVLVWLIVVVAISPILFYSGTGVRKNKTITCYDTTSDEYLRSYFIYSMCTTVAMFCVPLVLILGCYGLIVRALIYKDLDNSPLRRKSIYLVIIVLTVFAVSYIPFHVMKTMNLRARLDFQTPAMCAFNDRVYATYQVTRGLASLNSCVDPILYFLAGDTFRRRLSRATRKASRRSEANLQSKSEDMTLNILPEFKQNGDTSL
T4 sequence (P29274 whole entry): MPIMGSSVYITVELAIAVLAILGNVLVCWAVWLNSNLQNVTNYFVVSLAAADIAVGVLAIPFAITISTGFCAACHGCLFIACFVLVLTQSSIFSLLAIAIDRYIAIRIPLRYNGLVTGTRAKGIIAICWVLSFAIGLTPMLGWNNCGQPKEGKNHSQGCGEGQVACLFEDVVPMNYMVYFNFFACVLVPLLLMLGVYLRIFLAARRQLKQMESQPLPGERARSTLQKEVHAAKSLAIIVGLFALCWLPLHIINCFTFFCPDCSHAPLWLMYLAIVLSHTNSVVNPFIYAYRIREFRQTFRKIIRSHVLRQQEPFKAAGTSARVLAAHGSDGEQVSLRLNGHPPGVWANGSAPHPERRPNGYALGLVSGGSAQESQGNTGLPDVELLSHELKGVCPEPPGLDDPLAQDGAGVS

Compound: CCNC(=O)[C@H]1O[C@@H](n2cnc3c(N)nc(NCCc4ccc(CCC(=O)O)cc4)nc32)[C@H](O)[C@@H]1O [CGS21680]
- EC50 [1]: 2240 ± 850 nM

Compound: COc1ccc2c(c1)c(C1=C(c3c[nH]c4ccccc34)C(=O)NC1=O)cn2CCCN(C)C [GO]
- Effect of pretreatment on the PMA effect at A2BAR-triggered Ca2+ increase (A2BAR; [9]): eliminated the effect of PMA
- Effect of pretreatment on the PMA effect at P2Y1R-triggered Ca2+ increase (P2Y1R [2]; [9]): eliminated the effect of PMA
- Effect on native P2Y1R (MRS2365)-triggered calcium mobilization (P2Y1R [2]): significantly enhanced

Compound: CSc1nc(N)c2ncn([C@H]3[C@H](O)[C@H](O)[C@]4(COP(=O)(O)OP(=O)(O)O)C[C@H]34)c2n1 [MRS2365]
- EC50 (P2Y1R [2]; absence of PTX): 1.38 ± 0.26 nM

Compound: CCNC(=O)[C@H]1O[C@@H](n2cnc3c(N)ncnc32)[C@H](O)[C@@H]1O [NECA, adenosine-5′-N-ethyluronamide]
- EC50 [1]: 73.1 ± 18.2 nM

Compound: CCCCCCCCCCCCCC(=O)O[C@@H]1[C@@H](C)[C@@]2(O)[C@@H](C=C(CO)C[C@]3(O)C(=O)C(C)=C[C@@H]23)[C@@H]2C(C)(C)[C@]12OC(C)=O [PMA, phorbol 12-myristate 13-acetate]
- Effect on native A2BAR (NECA)-triggered calcium mobilization (A2BAR): partially diminished; also recorded: PMA partially sensitive (8)
- Effect on native P2Y1R (MRS2365)-triggered calcium mobilization (P2Y1R [2]): completely eliminated
- Effect on isoproterenol-induced calcium mobilization (β2-adrenergic receptor) (β2-adrenergic receptor; FR 300 nM, PMA 1 µM): completely diminished
- Effect on formoterol-induced calcium mobilization (β2-adrenergic receptor) (β2-adrenergic receptor; FR 300 nM, YM 1 µM, PMA 1 µM): completely diminished; also recorded: PMA completely sensitive (8)

Compound: COc1ccc2c(c1)CC[C@@H]1[C@@H]2CC[C@]2(C)[C@@H](NCCCCCCN3C(=O)C=CC3=O)CC[C@@H]12 [U73122]
- Effect on native A2BAR (NECA)-triggered calcium mobilization (A2BAR): completely inhibited

Compound: C=C1C(=O)NC(C)C(=O)N(C)C(C)C(=O)NC(C(OC(=O)C(NC(C)=O)C(O)C(C)C)C(C)C)C(=O)N(C)C(C(C)OC)C(=O)OC(C)C(NC(C)=O)C(=O)OC(Cc2ccccc2)C(=O)N1C (stereo not shown) [YM, YM254890] (Ac-T[PhLac][NMeDha]A[NMeA][X2][NMeT](Me); ester 1-C; configuration not given here)
- Effect on P2Y1R (MRS2365)-mediated calcium mobilization (P2Y1R [3]): inhibited; also recorded: fully sensitive
- IC50 (P2Y1R [3]; agonist MRS2365 1 µM, read-out: IC50 to inhibit P2Y1R-mediated calcium mobilization): 12.8 ± 4.1 nM
- Effect on A1AR (CCPA)-mediated calcium mobilization (A1AR [4]): inhibited; also recorded: YM and FR – fully sensitive (2)
- IC50 (A1AR [4]; HEK293 cells, overexpressed A1AR, agonist CCPA 1 µM, read-out: IC50 for inhibition of A1AR-mediated calcium mobilization): 12.9 ± 2.52 nM
- Effect on LPA-induced intracellular calcium mobilization (LPA receptor; YM 300 nM): completely inhibited
- IC50 (A1AR [5]): 11.6 nM
- IC50 (M2 muscarinic receptor): 9.53 nM
- Effect on A1AR-mediated inhibition of cAMP accumulation (A1AR [6]): did not affect
- Effect on A2AAR-mediated stimulation of cAMP accumulation (A2AAR): did not affect
- Effect on native A2BAR (NECA)-triggered calcium mobilization (A2BAR): little if any effect; also recorded: FR and YM insensitive (4); Gαq/11 siRNA insensitive (4)
- Effect on native P2Y1R (MRS2365)-triggered calcium mobilization (P2Y1R [2]): completely inhibited; also recorded: YM – fully sensitive (4)
- Effect on formoterol-induced calcium mobilization (β2-adrenergic receptor) (β2-adrenergic receptor; FR 300 nM, YM 1 µM, PMA 1 µM): YM – partially sensitive (6)
- Inhibition of the maximum effect (Emax) of formoterol, calcium mobilization (β2-adrenergic receptor; YM 1 µM): 78%
- Sensitivity of P2Y1R calcium mobilization to modulator (P2Y1R [7]): YM sensitive

Compound: Pertussis toxin [PTX]
- Effect on P2Y1R (MRS2365)-mediated calcium mobilization (P2Y1R [3]): no effect; also recorded: PTX insensitive (1)
- Effect on A1AR (CCPA)-mediated calcium mobilization (A1AR [4]): completely inhibited; also recorded: PTX sensitive (1)
- Effect on native A2BAR (NECA)-triggered calcium mobilization (A2BAR): diminished; also recorded: PTX sensitive (5)
- Effect on native P2Y1R (MRS2365)-triggered calcium mobilization (P2Y1R [2]): no effect; also recorded: PTX insensitive (5)
- Effect on formoterol-induced calcium mobilization (β2-adrenergic receptor) (β2-adrenergic receptor; FR 300 nM, YM 1 µM, PMA 1 µM): did not produce significant attenuation; also recorded: PTX not sensitive (6)
- Sensitivity of P2Y1R calcium mobilization to modulator (P2Y1R [7]): PTX insensitive
- Effect on A1AR-mediated Akt1/2/3 phosphorylation (A1AR [8]): completely inhibited
- Sensitivity of NECA-induced Ca2+ increase to toxin (HMC-1 cells): ^b NECA-induced Ca^2+ increase in HMC-1 cells was insensitive to CTX and PTX, Feoktistov et al., 1995 [30]

Compound: lysophosphatidic acid [LPA]
- EC50 (LPA receptor; endogenous LPA receptor, read-out: EC50 of induced intracellular calcium mobilization): 4590 nM
